Data on 26 compounds can be found in patent US7608619B2, “Substituted oxazole compounds with analgesic activity” (Gruenenthal GmbH, priority 2005, dated 2009).

For the test, the target named is T1, human μ-opiate receptor (Homo sapiens, UniProt P35372).
T1 construct: purchased Nen company, Zaventem, Belgium RB-HOM; host or cells: CHO-K1 cells (membrane preparation)
The test is described as follows: Affinity for the human μ-opiate receptor ([3H]-naloxone displacement, SPA, CHO-K1 membrane preparation). Conditions: test substance 1 μmole/l; displacement of 1 nmole/l [3H]-naloxone; percentage inhibition of the specific binding; read-out: μ-opioid receptor, % inhibition [1 μM]. Summed up: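 [3H]-naloxone (1 nmol/l) displacement by SPA with WGA beads, using membranes of CHO-K1 cells expressing the receptor, in 50 mmol/l Tris-HCl with 0.05% azide and 0.06% BSA; 90 min at room temperature. Non-specific binding defined with 25 μmol/l naloxone. Value is % inhibition of specific binding at 1 μmol/l test compound.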

T1 sequence (P35372 whole entry): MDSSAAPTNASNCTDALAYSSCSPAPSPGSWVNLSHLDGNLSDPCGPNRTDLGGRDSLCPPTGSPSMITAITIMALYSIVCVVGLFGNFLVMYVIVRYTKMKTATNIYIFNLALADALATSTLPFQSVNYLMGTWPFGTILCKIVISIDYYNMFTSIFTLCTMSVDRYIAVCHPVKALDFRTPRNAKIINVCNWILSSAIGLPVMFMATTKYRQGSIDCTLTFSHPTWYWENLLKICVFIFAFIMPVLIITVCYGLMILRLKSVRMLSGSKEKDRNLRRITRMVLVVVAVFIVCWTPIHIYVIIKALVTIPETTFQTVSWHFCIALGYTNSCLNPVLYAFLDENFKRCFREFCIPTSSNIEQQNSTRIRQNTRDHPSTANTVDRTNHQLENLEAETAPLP

As for `CCN(CC)c1oc(C(CC2CCC(C(c3cccs3)N(C)C)CC2)N(CC)CC)nc1Cc1ccccc1` (centres unmarked) [compound 114, (4-benzyl-2-{1-diethylamino-2-[4-(dimethylaminothiophen-2-yl-methyl)-cyclohexyl]-ethyl}-oxazol-5-yl)-diethylamine], the inhibition (as a rule, the percentage by which the read-out fell short of the control) at 1 µM stood at 94%.

Turning to `CCN(CC)C(CC1CCC(C(c2cccs2)N(C)C)CC1)c1nc(Cc2ccccc2)c(N2CCSCC2)o1` (centres unmarked) [compound 115, {1-(4-benzyl-5-thiomorpholin-4-yl-oxazol-2-yl)-2-[4-(dimethylamino-thiophen-2-yl-methyl)-cyclohexyl]-ethyl}-diethylamine], the inhibition at 1 µM was determined as 93%.

As for `CCN(CC)C(CC1CCC(C(c2cccs2)N(C)C)CC1)c1nc(Cc2ccccc2)c(N2CCCC(C)C2)o1` (centres unmarked) [compound 116, {1-[4-benzyl-5-(3-methylpiperidin-1-yl)-oxazol-2-yl]-2-[4-(dimethylamino-thiophen-2-yl-methyl)-cyclohexyl]-ethyl}-diethylamine], the inhibition at 1 µM is 94%.

In the case of `CC1CCCN(c2oc(C(CC3CCC(C(c4cccs4)N(C)C)CC3)N(C)c3ccccc3)nc2Cc2ccccc2)C1` (centres unmarked) [compound 117, {1-[4-benzyl-5-(3-methylpiperidin-1-yl)-oxazol-2-yl]-2-[4-(dimethylamino-thiophen-2-yl-methyl)-cyclohexyl]-ethyl}-methylphenylamine], the inhibition at 1 µM was 99%.

As for `CN(C)C(c1cccs1)C1CCC(CC(c2nc(Cc3ccccc3)c(N3CCSCC3)o2)N2CCN(Cc3ccccc3)CC2)CC1` (centres unmarked) [compound 118, ({4-[2-(4-benzylpiperazin-1-yl)-2-(4-benzyl-5-thiomorpholin-4-yl-oxazol-2-yl)-ethyl]-cyclohexyl}-thiophen-2-yl-methyl)-dimethylamine], the inhibition at 1 µM was found to be 84%.

As for `CC1CCCN(c2oc(C(CC3CCC(C(c4cccs4)N(C)C)CC3)N3CCN(Cc4ccccc4)CC3)nc2Cc2ccccc2)C1` (centres unmarked) [compound 119, ({4-[2-[4-benzyl-5-(3-methylpiperidin-1-yl)-oxazol-2-yl]-2-(4-benzyl-piperazin-1-yl)-ethyl]-cyclohexyl}-thiophen-2-yl-methyl)-dimethylamine], the inhibition at 1 µM was 99%.

Regarding `CN(C)C(c1cccc(F)c1)C1CCC(C(c2nc(Cc3ccccc3)c(N3CCCC3)o2)N2CCOCC2)CC1` (centres unmarked) [compound 120, [{4-[(4-benzyl-5-pyrrolidin-1-yl-oxazol-2-yl)-morpholin-4-yl-methyl]-cyclohexyl}-(3-fluorophenyl)-methyl]-dimethylamine], the inhibition at 1 µM was 75%.

Consider `CN(C)C(c1cccc(F)c1)C1CCC(C(c2nc(Cc3ccccc3)c(N3CCOCC3)o2)N2CCOCC2)CC1` (centres unmarked) [compound 121, [{4-[(4-benzyl-5-morpholin-4-yl-oxazol-2-yl)-morpholin-4-yl-methyl]-cyclohexyl}-(3-fluorophenyl)-methyl]-dimethylamine], for which the inhibition at 1 µM was 67%.

Regarding `CN(C)C(c1cccc(F)c1)C1CCC(C(c2nc(Cc3ccccc3)c(N3CCCC3)o2)N2CCN(c3ccc(F)cc3)CC2)CC1` (centres unmarked) [compound 122, [(4-{(4-benzyl-5-pyrrolidin-1-yl-oxazol-2-yl)-[4-(4-fluorophenyl)-piperazin-1-yl]-methyl}-cyclohexyl)-(3-fluorophenyl)-methyl]-dimethylamine], the inhibition at 1 µM was determined as 72%.

On to `COc1ccc(N2CCN(C(c3nc(Cc4ccccc4)c(N4CCCC4)o3)C3CCC(C(c4cccc(F)c4)N(C)C)CC3)CC2)cc1` (centres unmarked) [compound 123, [(4-{(4-benzyl-5-pyrrolidin-1-yl-oxazol-2-yl)-[4-(4-methoxyphenyl)-piperazin-1-yl]-methyl}-cyclohexyl)-(3-fluorophenyl)-methyl]-dimethylamine], for which the inhibition at 1 µM turned out to be 66%.

As to `COc1ccc(N2CCN(C(c3nc(Cc4ccccc4)c(N4CCOCC4)o3)C3CCC(C(c4cccc(F)c4)N(C)C)CC3)CC2)cc1` (centres unmarked) [compound 124, [(4-{(4-benzyl-5-morpholin-4-yl-oxazol-2-yl)-[4-(4-methoxyphenyl)-piperazin-1-yl]-methyl}-cyclohexyl)-(3-fluorophenyl)-methyl]-dimethylamine], the inhibition at 1 µM was found to be 60%.

As to `CN(C)C(c1cccc(F)c1)C1CCC(C(c2nc(Cc3ccccc3)c(N3CCCC3)o2)N2CCc3ccccc3C2)CC1` (centres unmarked) [compound 125, [{4-[(4-benzyl-5-pyrrolidin-1-yl-oxazol-2-yl)-(3,4-dihydro-1H-isoquinolin-2-yl)-methyl]-cyclohexyl}-(3-fluorophenyl)-methyl]-dimethylamine], the inhibition at 1 µM came to 83%.

For the compound `CN(C)C(c1cccc(F)c1)C1CCC(C(c2nc(Cc3ccccc3)c(N3CCOCC3)o2)N2CCc3ccccc3C2)CC1` (centres unmarked) [compound 126, [{4-[(4-benzyl-5-morpholin-4-yl-oxazol-2-yl)-(3,4-dihydro-1H-isoquinolin-2-yl)-methyl]-cyclohexyl}-(3-fluorophenyl)-methyl]-dimethylamine], the inhibition at 1 µM was 76%.

Regarding `COc1ccc(N2CCN(c3oc(C(C4CCC(C(c5cccc(F)c5)N(C)C)CC4)N4CCc5ccccc5C4)nc3Cc3ccccc3)CC2)cc1` (centres unmarked) [compound 127, [{4-[{4-benzyl-5-[4-(4-methoxy-phenyl)-piperazin-1-yl]-oxazol-2-yl}-(3,4-dihydro-1H-isoquinolin-2-yl)-methyl]-cyclohexyl}-(3-fluorophenyl)-methyl]-dimethylamine], the inhibition at 1 µM was determined as 73%.

Take `CC1CN(c2oc(C(C3CCC(C(c4cccc(F)c4)N(C)C)CC3)N3CCc4ccccc4C3)nc2Cc2ccccc2)CC(C)O1` (centres unmarked) [compound 128, [{4-[[4-benzyl-5-(2,6-dimethyl-morpholin-4-yl)-oxazol-2-yl]-(3,4-dihydro-1H-isoquinolin-2-yl)-methyl]-cyclohexyl}-(3-fluorophenyl)-methyl]-dimethylamine]: the inhibition at 1 µM amounted to 71%.

Turning to `CN(C)C(c1ccc(Cl)cc1)C1CCC(C(c2nc(Cc3ccccc3)c(N3CCCC3)o2)N2CCOCC2)CC1` (centres unmarked) [compound 129, [{4-[(4-benzyl-5-pyrrolidin-1-yl-oxazol-2-yl)-morpholin-4-yl-methyl]-cyclohexyl}-(4-chlorophenyl)-methyl]-dimethylamine], the inhibition at 1 µM worked out at 75%.

Consider `CN(C)C(c1ccc(Cl)cc1)C1CCC(C(c2nc(Cc3ccccc3)c(N3CCOCC3)o2)N2CCOCC2)CC1` (centres unmarked) [compound 130, [{4-[(4-benzyl-5-morpholin-4-yl-oxazol-2-yl)-morpholin-4-yl-methyl]-cyclohexyl}-(4-chlorophenyl)-methyl]-dimethylamine], for which the inhibition at 1 µM came to 77%.

For the compound `COc1ccc(N2CCN(c3oc(C(C4CCC(C(c5ccc(Cl)cc5)N(C)C)CC4)N4CCOCC4)nc3Cc3ccccc3)CC2)cc1` (centres unmarked) [compound 131, [[4-({4-benzyl-5-[4-(4-methoxyphenyl)-piperazin-1-yl]-oxazol-2-yl}-morpholin-4-yl-methyl)-cyclohexyl]-(4-chlorophenyl)-methyl]-dimethylamine], the inhibition at 1 µM was 64%.

For `CC1CN(c2oc(C(C3CCC(C(c4ccc(Cl)cc4)N(C)C)CC3)N3CCOCC3)nc2Cc2ccccc2)CC(C)O1` (centres unmarked) [compound 132, [(4-{[4-benzyl-5-(2,6-dimethylmorpholin-4-yl)-oxazol-2-yl]-morpholin-4-yl-methyl}-cyclohexyl)-(4-chlorophenyl)-methyl]-dimethylamine], the inhibition at 1 µM amounted to 64%.

Take `CN(C)C(c1ccc(Cl)cc1)C1CCC(C(c2nc(Cc3ccccc3)c(N3CCCC3)o2)N2CCN(c3ccc(F)cc3)CC2)CC1` (centres unmarked) [compound 133, [(4-{(4-benzyl-5-pyrrolidin-1-yl-oxazol-2-yl)-[4-(4-fluorophenyl)-piperazin-1-yl]-methyl}-cyclohexyl)-(4-chlorophenyl)-methyl]-dimethylamine]: the inhibition at 1 µM came to 64%.

As to `COc1ccc(N2CCN(C(c3nc(Cc4ccccc4)c(N4CCCC4)o3)C3CCC(C(c4ccc(Cl)cc4)N(C)C)CC3)CC2)cc1` (centres unmarked) [compound 134, [(4-{(4-benzyl-5-pyrrolidin-1-yl-oxazol-2-yl)-[4-(4-methoxyphenyl)-piperazin-1-yl]-methyl}-cyclohexyl)-(4-chlorophenyl)-methyl]-dimethylamine], the inhibition at 1 µM is 72%.

Consider `COc1ccc(N2CCN(C(c3nc(Cc4ccccc4)c(N4CCOCC4)o3)C3CCC(C(c4ccc(Cl)cc4)N(C)C)CC3)CC2)cc1` (centres unmarked) [compound 135, [(4-{(4-benzyl-5-morpholin-4-yl-oxazol-2-yl)-[4-(4-methoxyphenyl)-piperazin-1-yl]-methyl}-cyclohexyl)-(4-chlorophenyl)-methyl]-dimethylamine], for which the inhibition at 1 µM is 70%.

With `COc1ccc(N2CCN(C(c3nc(Cc4ccccc4)c(N4CC(C)OC(C)C4)o3)C3CCC(C(c4ccc(Cl)cc4)N(C)C)CC3)CC2)cc1` (centres unmarked) [compound 136, [(4-{[4-benzyl-5-(2,6-dimethylmorpholin-4-yl)-oxazol-2-yl]-[4-(4-methoxy-phenyl)-piperazin-1-yl]-methyl}-cyclohexyl)-(4-chlorophenyl)-methyl]-dimethylamine], the inhibition at 1 µM stood at 62%.

As for `CN(C)C(c1ccc(Cl)cc1)C1CCC(C(c2nc(Cc3ccccc3)c(N3CCCC3)o2)N2CCc3ccccc3C2)CC1` (centres unmarked) [compound 137, [{4-[(4-benzyl-5-pyrrolidin-1-yl-oxazol-2-yl)-(3,4-dihydro-1H-isoquinolin-2-yl)-methyl]-cyclohexyl}-(4-chlorophenyl)-methyl]-dimethylamine], the inhibition at 1 µM was 85%.

`CN(C)C(c1cccs1)C1CCC(C(c2nc(Cc3ccccc3)c(N3CCCC3)o2)N2CCOCC2)CC1` (centres unmarked) [compound 138, ({4-[(4-benzyl-5-pyrrolidin-1-yl-oxazol-2-yl)-morpholin-4-yl-methyl]-cyclohexyl}-thiophen-2-yl-methyl)-dimethylamine]: the inhibition at 1 µM came to 91%.

Regarding `CN(C)C(c1cccs1)C1CCC(C(c2nc(Cc3ccccc3)c(N3CCOCC3)o2)N2CCOCC2)CC1` (centres unmarked) [compound 139, ({4-[(4-benzyl-5-morpholin-4-yl-oxazol-2-yl)-morpholin-4-yl-methyl]-cyclohexyl}-thiophen-2-yl-methyl)-dimethylamine], the inhibition at 1 µM stood at 72%.
